Measured values reported in patent US20230278972A1, “SUBSTITUTED HALOALKYL SULFONANILIDE HERBICIDES” (FMC Corporation, priority 2020, published 2023).

How the values were obtained:
Type in all cases: in vivo
[1] = system: corn (Zea mays); test: Test A1 postemergence, corn; conditions: for Plant response rating, Corn: Postemergence; for Corn plant response rating: postemergence
Summary of the method: (§1)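 Plants grown in pots of loam/sand mix; preemergence = soil-directed spray on seeded pots, postemergence = spray at 1–2 leaves, height 2–10 cm; test chemicals formulated in non-phytotoxic solvent with surfactant.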

[2] = system: ragweed (common ragweed, Ambrosia artemisiifolia); test: Test A1 postemergence, ragweed; conditions: for Ragweed plant response rating: postemergence; for Plant response rating, Ragweed: Postemergence
Summary of the method: as §1

[3] = system: kochia (Bassia scoparia); test: Test A1 postemergence, kochia; conditions: for Kochia plant response rating: postemergence; for Plant response rating, Kochia: Postemergence
Summary of the method: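 Test compounds were formulated in a non-phytotoxic solvent mixture containing a surfactant. For preemergence, seeds sown in a loam soil–sand blend received a directed soil spray. For postemergence, potted plants in the same soil, 2 to 10 cm tall at the one- to two-leaf stage, were sprayed.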

[4] = system: goosegrass (Eleusine indica); test: Test A1 preemergence, goosegrass
Summary of the method: as §1

[5] = 31 g ai/ha, 0 to 100 scale (0 no effect, 100 complete control), 10 days
[6] = 31 g ai/ha, 0 to 100 scale (0 no effect, 100 complete control)
[7] = 125 g ai/ha, 0 to 100 scale, 0 no effect, 100 complete control
[8] = 125 g ai/ha, 0 to 100 scale (0 no effect, 100 complete control), 10 days

Row | SMILES | Plant response rating, Corn [1, 5] | Plant response rating, Corn ([1]; 125 g ai/ha, 0 to 100 scale) | Ragweed plant response rating [2, 6] | Plant response rating, Ragweed ([2]; 125 g ai/ha, 0 to 100 scale) | Kochia plant response rating [3, 6] | Plant response rating, Kochia ([3]; 125 g ai/ha, 0 to 100 scale) | Plant response rating, Goosegrass [4, 6] | Plant response rating, Goosegrass [4, 7] | Plant response rating, Ragweed [2, 5] | Plant response rating, Kochia [3, 5] | Corn plant response rating [1, 6] | Plant response rating, Corn [1, 8] | Plant response rating, Ragweed [2, 8] | Plant response rating, Kochia [3, 8]
1 | Cc1c(C(=O)N2C[C@@H](C)O[C@H](C)C2)cc(N(COC(=O)C(C)(C)C)S(=O)(=O)C(F)(F)F)c(C)c1C (relative stereo) [Compound 373] | 0 | 40 | 50 | 80 | 0 | 10 | 30 | 100 |  |  |  |  |  | 
2 | CCOC(=O)N(c1cc(C(=O)N2C[C@@H](C)O[C@H](C)C2)c(C)c(C)c1C)S(=O)(=O)C(F)(F)F (relative stereo) [Compound 374] | 60 | 70 | 60 | 80 | 0 | 10 | 60 | 100 |  |  |  |  |  | 
3 | Cc1c(NS(=O)(=O)C(F)(F)F)cc(C(=O)N2CCSCC2)c(C)c1C [Compound 283] | 0 | 0 |  | 80 |  | 60 | 30 | 60 | 30 | 20 |  |  |  | 
4 | Cc1c(C(=O)N2CCSCC2)cc(N(COC(=O)C(C)(C)C)S(=O)(=O)C(F)(F)F)c(C)c1C [Compound 285] | 0 | 0 |  | 90 |  | 90 | 0 | 70 | 20 | 10 |  |  |  | 
5 | CCOC(=O)N(c1cc(C(=O)N2CCSCC2)c(C)c(C)c1C)S(=O)(=O)C(F)(F)F [Compound 286] | 0 | 0 |  | 40 |  | 50 | 30 | 90 | 0 | 20 |  |  |  | 
6 | Cc1c(NS(=O)(=O)C(F)(F)F)cc(C(=O)N2CCC(C)CC2)c(C)c1C [Compound 366] | 0 | 0 | 40 | 80 | 0 | 30 | 10 | 80 |  |  |  |  |  | 
7 | COC1CCN(C(=O)c2cc(NS(=O)(=O)C(F)(F)F)c(C)c(C)c2C)CC1 [Compound 367] | 0 | 70 | 50 | 70 | 20 | 30 | 60 | 80 |  |  |  |  |  | 
8 | Cc1c(C(=O)N2CCC(C)CC2)cc(N(COC(=O)C(C)(C)C)S(=O)(=O)C(F)(F)F)c(C)c1C [Compound 369] | 0 | 50 | 20 | 80 | 0 | 50 | 0 | 50 |  |  |  |  |  | 
9 | COC1CCN(C(=O)c2cc(N(COC(=O)C(C)(C)C)S(=O)(=O)C(F)(F)F)c(C)c(C)c2C)CC1 [Compound 370] | 0 | 90 | 50 | 70 | 0 | 20 | 30 | 90 |  |  |  |  |  | 
10 | C#CCN(C)C(=O)c1cc(N(COC(=O)C(C)(C)C)S(=O)(=O)C(F)(F)F)c(C)c(C)c1C [Compound 371] | 60 | 90 | 40 | 70 | 40 | 70 | 0 | 90 |  |  |  |  |  | 
11 | Cc1cc(C)c(C2=NOC3OCCCC23)cc1NS(=O)(=O)C(F)(F)F (stereo not shown) [Compound 372] | 20 | 50 | 40 | 80 | 0 | 0 | 90 | 100 |  |  |  |  |  | 
12 | CCC1CC(c2cc(NS(=O)(=O)C(F)(F)F)c(C)cc2C)=NO1 (stereo not shown) [Compound 375] | 0 | 0 | 0 | 50 | 0 | 60 | 70 | 100 |  |  |  |  |  | 
13 | CCC1CC(c2cc(N(COC(=O)C(C)(C)C)S(=O)(=O)C(F)(F)F)c(C)cc2C)=NO1 (stereo not shown) [Compound 376] | 0 | 0 | 20 | 40 | 0 | 50 | 50 | 100 |  |  |  |  |  | 
14 | Cc1ccc(C2=NOC3CCCC23)cc1NS(=O)(=O)C(F)(F)F (stereo not shown) [Compound 377] | 0 | 0 | 20 | 30 | 20 | 30 | 0 | 20 |  |  |  |  |  | 
15 | CCc1cc(C)c(N(COC(=O)C(C)(C)C)S(=O)(=O)C(F)(F)F)cc1C1=NOC2CCCC12 (stereo not shown) [Compound 378] | 0 | 30 | 0 | 30 | 0 | 60 | 20 | 50 |  |  |  |  |  | 
16 | CCOC(=O)N(c1cc(C2=NOC3CCCC23)c(CC)cc1C)S(=O)(=O)C(F)(F)F (stereo not shown) [Compound 379] | 0 | 0 | 20 | 40 | 0 | 40 | 20 | 90 |  |  |  |  |  | 
17 | Cc1c(NS(=O)(=O)C(F)(F)F)cc(C2=NOC3(CCCC3)C2)c(C)c1C [Compound 380] |  |  | 40 |  | 30 |  | 50 | 100 |  |  | 0 | 50 | 60 | 50
18 | Cc1c(C2=NOC3(CCCC3)C2)cc(N(COC(=O)C(C)(C)C)S(=O)(=O)C(F)(F)F)c(C)c1C [Compound 382] |  |  | 20 |  | 0 |  | 0 | 30 |  |  | 0 | 0 | 40 | 30
19 | Cc1cc(C)c(N2CC3(CCCCC3)CC2=O)cc1NS(=O)(=O)C(F)(F)F [Compound 392] |  |  | 30 |  | 10 |  | 40 | 100 |  |  | 0 | 0 | 70 | 20
20 | Cc1cc(Cl)c(NS(=O)(=O)C(F)(F)F)cc1N1CCC2(CCCCC2)C1=O [Compound 393] |  |  | 60 |  | 20 |  | 100 | 100 |  |  | 0 | 30 | 70 | 60
